{
  "source": "patent US20220168301A1",
  "about": "“METHODS FOR TREATING SYMPTOMATIC ORTHOSTATIC HYPOTENSION” (Cerecor Inc, priority 2019, published 2022)",
  "origin": "cited, not measured here",
  "tested_on": "patients with nOH",
  "conditions": "Phase III clinical trials; cited from earlier work",
  "data": [
    {"smiles": "N[C@H](C(=O)O)[C@H](O)c1ccc(O)c(O)c1", "note": "[droxidopa, L-threo-3,4-dihydroxyphenyl-serine]", "values": [
      {"measurement": "Standing systolic blood pressure", "value": "increase in standing systolic blood pressure"},
      {"measurement": "Symptoms of nOH (dizziness, lightheadedness or feeling about to faint)", "value": "significant improvement in symptoms of nOH"}
    ]}
  ]
}
